Patent EP2246037A2, “Anti-aging and whitening properties of quercetin, 18a-glycyrrhetinic acid, hederagenin and its derivatives” (Korres S.A. Natural Products, priority 2009, dated 2010)

Key:
[1] = tested on: HFL-1 human diploid fibroblasts; experiment: β-galactosidase activity staining of continuously treated fibroblasts; type: cell-based
Procedure: The steps, methods and results that were obtained regarding the anti-aging properties of the examined substances are the following: • 1) Study of the lifespan of human diploid fibroblasts in vitro in the presence of the substances. • 1.1. HFL-1 human diploid fibroblasts (HDFs) were used in in vitro conditions (growth at 37°C, 5% CO2 and 95% humidity). • 1.2. The cells were maintained in Dulbecco's modified Eagle's medium (DMEM ®; Invitrogen Life Technologies Inc.) supplemented with 10% (v/v) fetal calf serum, 100 Units/ml penicillin, 100 µg/ml strepromycin, 2 mM glutamine and 1% (v/v) non-essential amino acids (complete medium). • 1.3. The cells were constantly cultured in culture medium supplemented with the substances [final concentration for quercetin (QUER), 18α-glycyrrhetinic acid (18α GA), and hederagenin (HED): 2 µg/ml and for quercetin caprylate (QU-CAP) three concentrations were applied: 0.5, 2 and 5 µg/ml]. Quercetin, 18α-glycyrrhetinic acid and hederagenin were diluted in DMSO (dimethyl sulfoxide) whereas quercetin caprylate was diluted in caprilic/capric triglycerides (CAP). Therefore, the control cultures were incubated in medium supplemented with 0.1% DMSO or 0.1% CAP. • 1.4. The cells were replenished with fresh media supplemented with the substances or the diluents every 24 h and their numbers were examined using a Coulter Z2 ® counter (Coulter Corporation) until they reached senescence (approximately after 13 weeks). The cumulative population doublings performed by each culture were calculated using the following formula: CPD=Σ[PD] where PD=LOG[Nfinal/Ninitial]/LOG[2], where N final represents the number of cells that were measured when each culture reached confluence and N initial represents the number of cells that was initially seeded. • 1.5. Photographs of the cells maintained in cell culture and treated with the various substances for the same time period were taken. • 1.6. […] More specifically, cells that were incubated with quercetin caprylate gave up to 2.8% more population doublings as compared to the population doublings performed by the relative control cultures. Cells that were incubated with the other substances gave up to 2.9% more population doublings as compared to their relative control cultures. • 1.7. […] Cells that were treated with either of the tested substances maintained the young morphology for longer as compared to the control cultures (DMSO-treated and CAP-treated). […] Briefly, 10^5 cells from each culture were seeded in 6-well plates. After 24 h cells were washed with PBS (phosphate buffered saline), fixed in 0.2% glutaraldehyde and 2% formaldehyde for 5 min, washed again with PBS, and finally stained for 24 h at 37 °C in the absence of CO2, in staining solution (150 mM NaCl, 2 mM MgCl2, 5 mM K3Fe(CN)6, 40 mM citric acid, and 12 mM sodium phosphate, pH 6.0) containing 1 mg/ml 5-bromo-4-chloro-3-indolyl-β-D-galactoside. Photographs were then taken. • 1.3. […] HFL-1 HDFs that have senesced in vitro were used (growth at 37°C, 5% CO2 and 95% humidity). More specifically, middle aged HFL-1 HDFs (cpd 59) and terminally senescent HFL-1 HDFs (cpd 65) that had senesced in the absence of any substance were used. • 3.2. The cells were seeded and maintained in complete medium (see 1.2). Culture medium supplemented with the substances [final concentration for quercetin (QUER), 18α-glycyrrhetinic acid (18α GA), and hederagenin (HED): 2 µg/ml and for quercetin caprylate (QU-CAP) three concentrations were applied: 0.5, 2 and 5 µg/ml] or the diluents (0.1% DMSO or 0.1% CAP) were added 24 h later. The cells were replenished with fresh media supplemented with the substances or the diluents every 24 h for 1 week and their numbers were then examined using a Coulter Z2 ® counter (Coulter Corporation). • 3.3. Detection of β-galactosidase activity was performed in these cells as described above and photographs of the cells following β-galactosidase activity assay were taken. • 3.4. […]

[2] = tested on: HFL-1 HDFs; experiment: Cell survival with or without oxidative stress; type: cell-based, human; details: for higher survival rate as compared to control cultures: 300 µM H2O2 for 2.5 h, then additional 24 h in culture; for survival to an oxidative stress challenge: summary, versus control cells

**Q.** Which “% β-galactosidase positive cells” value ([1]; 2 µg/ml) does the source give for `CC1(C)[C@@H](O)CC[C@]2(C)[C@H]3C(=O)C=C4[C@H]5C[C@@](C)(C(=O)O)CC[C@]5(C)CC[C@@]4(C)[C@]3(C)CC[C@@H]12` [18α-glycyrrhetinic acid] here?
**A.** The value was 37.7%.

**Q.** What about the “higher survival rate as compared to control cultures” value [2] of the same compound?
**A.** The value was 2%.

**Q.** What about the “higher survival rate as compared to diluent-treated cells” value ([2]; 24 h treatment, no oxidative stress) of the same compound?
**A.** Its value is 3.5%.

**Q.** What about the “survival to an oxidative stress challenge” value [2] of the same compound?
**A.** The value was “survived better”.

**Q.** For `CC1(C)CC[C@]2(C(=O)O)CC[C@]3(C)C(=CC[C@@H]4[C@@]5(C)CC[C@H](O)[C@@](C)(CO)[C@@H]5CC[C@]43C)[C@@H]2C1` [Hederagenin], which “% β-galactosidase positive cells” value ([1]; 2 µg/ml) is on record?
**A.** Its value is 31.8%.

**Q.** For `O=c1c(O)c(-c2ccc(O)c(O)c2)oc2cc(O)cc(O)c12` [Quercetin], which “% β-galactosidase positive cells” value ([1]; 2 µg/ml) is on record?
**A.** Its value is 13.5%.

**Q.** And the “higher survival rate as compared to control cultures” value [2]?
**A.** The value was ≤ 14.5%.

**Q.** And the “survival to an oxidative stress challenge” value [2]?
**A.** Its value is “survived better”.

**Q.** quercetin caprylate was tested. Which “% β-galactosidase positive cells” value ([1]; 0,5 µg/ml) did it give?
**A.** The value was 36.6%.

**Q.** And the “% β-galactosidase positive cells” value ([1]; 2 µg/ml)?
**A.** Its value is 32.3%.

**Q.** What about the “% β-galactosidase positive cells” value ([1]; 5 µg/ml) of the same compound?
**A.** The value was 47%.

**Q.** What about the “higher survival rate as compared to control cultures” value [2] of the same compound?
**A.** Its value is ≤ 14.5%.

**Q.** What about the “survival to an oxidative stress challenge” value [2] of the same compound?
**A.** Its value is “survived better”.
